Measured values as given in patent publication US10463669B2, “Composition for treating or preventing liver cancer” (Seoul National University R&DB Foundation, priority 2016, dated 2019).

Test system: AKT phosphorylation in HCC cell lines (Huh7 and Hep3B)
Assay: AKT phosphorylation, immunoblot assay
Type: cell-based, human
Conditions: HCC cells
Protocol: Medium was exchanged every day, and the aforementioned cells were cultured for 4 days in 300 μmol/L hydrogen peroxide (H2O2) (Sigma Aldrich; H1009). In several experiments, the cells were treated for 1 hour with 5 mmol/L N-acetylcysteine (NAC) (Sigma Aldrich; A7250), 25 μmol/L idelalisib (LC Laboratoties, Woburn, Mass., USA; I-7447), 25 μmol/L perifosine (LC Laboratoties, Woburn, Mass., USA; P-6522), or 30 μmol/L GSK3β inhibitor (GSK3β inhibitor XI) (Santa Cruz; sc-204770) (31) before adding H2O2. Furthermore, sterilized distilled water (pH 7.0) was used as a negative control (i.e., mock treatment).
Total 2×10^5 cells were boiled for 5 minutes in 2×SDS sample buffer (100 mmol/L TrisHCl [pH 6.8], 4% SDS, 0.2% bromophenol blue, 20% glycerol, and 200 mmol/L β-mercaptoethanol), and then subjected to SDS-PAGE and Western blotting. To detect the TERT, the cells were cultured in 2×SDS sample buffer for 15 minutes at 55° C. TERT-specific (1:300, Rockland Immunochemicals, Gilbertsville, Pa., USA; 600-401-252), AKT-specific (1:1000, Cell Signaling Technology; #9272), phospho-AKT-specific (1:2000, Cell Signaling Technology; #4060), GAPDH-specific (1:2000, Santa Cruz Biotechnology; sc-47724), or β-actin-specific (1:2000, Sigma-Aldrich, St. Louis, Mo., USA; A5441) antibody was diluted in 5% skim milk or bovine serum albumin with TBS-Tween 20, cultured overnight at 4° C., washed, and cultured with HRP-conjugated secondary antibody (1:1000, Abcam; ab131368, or ab131366). By using FUSION-SOLO imager (Vilber Lourmat, Marne La Vallee, France), a chemical fluorescence image was obtained.

`CC[C@H](Nc1ncnc2nc[nH]c12)c1nc2cccc(F)c2c(=O)n1-c1ccccc1` [idelalisib, 5-fluoro-3-phenyl-2-[(1S)-1-(7H-purin-6-ylamino)propyl]-4(3H)-quinazolinone] was tested, and the pAKT was “inhibit”.
